Data set [1] can be described thus: In vitro Colonic Material Stability Assay. It counts as in vitro ADME. Conditions: for Assay 3 (% Remaining at 24 h): colonic material slurry, anaerobic, 1 or 10 μM; for Selective delivery to the colon (conclusion from Table 2): from SGF, SIF and colonic material stability. The essentials:
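Compounds were added at 1 or 10 μM final to colonic material slurry (6.7 μL of 15% w/v slurry per 1 mL YCFAC or similar medium). Samples taken at 0–2880 min were acetonitrile-quenched and the remaining compound quantified by LC/MS.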

A short description of data set [2]: Stability of conjugates in Simulated Intestinal Fluid (SIF). It counts as in vitro ADME. Conditions: simulated intestinal fluid pH 6.7 with pancreatin, 1 μM, 37° C. The procedure: Assay 2. Stability of conjugates in Simulated Intestinal Fluid (SIF). This assay was used to assess the stability of a conjugate in a small intestine. Phosphate buffer was prepared by dissolving 0.42 g of sodium hydroxide pellets and 3.95 g of monobasic sodium phosphate monohydrate and 6.19 g of sodium chloride in ultrapure water (MilliQ®, Millipore Sigma, Darmstadt, Germany). The pH was adjusted to 6.7 using aq. HCl and aq. NaOH, as necessary, and the solution was diluted with ultrapure water to produce 1 L of the pH 6.7 buffer. 112 mg FaSSIF powder (Biorelevant™, London, UK) was dissolved in 50 mL of the pH 6.7 buffer. 2 to 3 mL of the resulting solution were then added to 500 mg pancreatin (Millipore Sigma, Darmstadt, Germany). The resulting mixture was agitated by finger tapping the vessel containing the mixture until milky suspension formed. At this time, the remainder of the 50 mL FaSSiF/pH 6.7 buffer solution was added. The resulting suspension was flipped upside down 10 times to produce SIF, which was used fresh. Test compounds were dissolved in DMSO stock to 1 mM. An aliquot of the DMSO stock solution was removed and diluted in the SIF media in 15 mL falcon tubes to produce a mixture with a tested compound concentration of 1 μM. A 1 mL aliquot was immediately removed and diluted once with 1 volume of acetonitrile for T0 timepoint. The mixture was sealed and agitated at 37° C. in an incubator. Aliquots (1 mL) were removed at regular intervals and immediately quenched by the addition of 1 volume of acetonitrile. The resulting samples were analyzed by LC/MS to determine degradation rates

The next data set relates to E. coli Nissle 1917. Kind of data set: Payload release in the presence of fecal matter, ClbP positive E. coli. It counts as cell-based. As to conditions: 10 μM compound, anaerobic, 37° C., 20 h, LCMS. The source says: (§1) This example is representative of the methods described in Example 103. Fecal samples were subjected to metagenomic whole-genome shotgun sequencing followed by querying the dataset for the presence of the clbP gene or by attempting to amplify the gene with primers specific for it by qPCR. Samples that gave a signal below the detection limit were used in subsequent steps. The fecal sample was resuspended as a 15% (w/v) slurry in Anaerobic Phosphate Buffer Saline.
(§2) Following steps 1 and 2 as detailed in Example 98, E. coli CFT073 ATCC 700928, E. coli Nissle 1917, or E. coli BL21(DE3) were grown in liquid culture.
(§3) In an anaerobic chamber, the E. coli strains were added to the fecal samples obtained in step 1 at a dilution level calculated to represent 0, 1, 10, 50, 90, 99, or 100% of all organisms present in PRAS dilution blank on a 200 μL volume. The test compound (10 μM final concentration) was added to the mixture. The test compound was also added to a bacteria-free media control under similar conditions. The plate was sealed and incubated at 37° C. for 20 h. Under similar conditions, a standard curve of both the starting material and the payload compound was made in bacteria-free media.
(§4) After 20 h, an aliquot was tested for breakdown and release of a payload by LCMS by diluting serially to a final dilution of 1:100 first with Acetonitrile (10× dilution) and then with (1:1) Mobile Phase A-0.1% Formic Acid in Water:Mobile Phase B-0.1% Formic acid in Acetonitrile (1 OX dilution), with absolute quantification compared to the external standard curve. In an ideal case, the amount of payload released in the reaction(s) with ClbP-encoding E. coli was >75% of the theoretical maximum, and none was released in the E. coli BL21(DE3) and media-alone conditions. In an acceptable case, the amount of payload released in the reaction(s) with ClbP-encoding E. coli was 25-75% of the theoretical maximum, and <25% of the theoretical maximum was released in the E. coli BL21(DE3) and media-alone conditions. In a non-preferred case, the amount of payload released in the reactions(s) with ClbP-encoding E. coli was <25% of the theoretical maximum, and >25% of the theoretical maximum was released in the E. coli BL21(DE3) and media-alone conditions.

Another data set has as its system E. coli BL21(DE3). The data set is described as follows: Payload release in the presence of fecal matter, ClbP negative E. coli. It counts as cell-based. As to conditions: 10 μM compound, anaerobic, 37° C., 20 h, LCMS.
From the text: as §1, §2, §3, §4

Molecules are shown by their SMILES. Non-standard residues stand in square brackets, D forms with d. Residues, ends and D or L forms follow the SMILES beside them. *: point of attachment. Myristoyl = CCCCCCCCCCCCCC(=O)*; Octanoyl = CCCCCCCC(=O)*

With `CCCCCCCC(=O)N[C@H](CC(N)=O)C(=O)N[C@@H](CC(C)C)C(=O)OC` [Example 7, Methyl octanoyl-D-asparaginyl-L-leucinate] (Octanoyl-[dN]-Leu-OMe), in data set [1], the “Assay 3 (% Remaining at 24 h)” value was “A (<25% of the tested compound remaining)”. In addition, the “Assay 2 (SIF) (% @ Remaining 4 hours)” value in data set [2] is given as “A (<25% of the tested compound remaining)”.

Regarding `CCCCCCCC(=O)N[C@H](CCC(N)=O)C(=O)N[C@@H](C)C(=O)OC` [Example 10, Methyl octanoyl-D-glutaminyl-L-alaninate] (Octanoyl-[dQ]-Ala-OMe), the “Assay 3 (% Remaining at 24 h)” value in data set [1] is “C (>75% of the tested compound remaining)”. Moreover, the “Assay 2 (SIF) (% @ Remaining 4 hours)” value in data set [2] is on record as “C (>75% of the tested compound remaining)”.

In the case of `CCCCCCCC(=O)N[C@H](CC(N)=O)C(=O)N[C@H](C(=O)OC)C(C)C` [Example 6, Methyl octanoyl-D-asparaginyl-L-valinate] (Octanoyl-[dN]-Val-OMe), the “Assay 3 (% Remaining at 24 h)” value in data set [1] is “B (25-75% of the tested compound remaining)”. For the same compound, the “Assay 2 (SIF) (% @ Remaining 4 hours)” value in data set [2] is given as “A (<25% of the tested compound remaining)”.

With `CCCCCCCCCCCCCC(=O)N[C@H](CC(N)=O)C(=O)NCCCC(=O)OC` [Example 20, Methyl (R)-4-(4-amino-4-oxo-2-tetradecanamidobutanamido)butanoate], in data set [1], the “Assay 3 (% Remaining at 24 h)” value is recorded as “A (<25% of the tested compound remaining)” and the “Selective delivery to the colon (conclusion from Table 2)” value (from here on “Selective delivery to the colon”) is given as “can be selectively delivered to the colon”. In addition, the “Assay 2 (SIF) (% @ Remaining 4 hours)” value in data set [2] is recorded as “B (25-75% of the tested compound remaining)”.

Consider `CCCCCCCC(=O)N[C@H](CC(N)=O)C(=O)NCCN(C)C(=O)Oc1ccc2c(C)cc(=O)oc2c1` [Example 70, 4-methyl-2-oxo-2H-chromen-7-yl (R)-(2-(4-amino-2-octanamido-4-oxobutanamido)ethyl)(methyl)carbamate], for which, in data set [1], the “Assay 3 (% Remaining at 24 h)” value was “C (>75% of the tested compound remaining)”. Further, the “% payload released in ClbP positive (Nissle 1917) at 1:1 ratio of E. coli to fecal bacteria” value in the data set on E. coli Nissle 1917 was determined as 25.1%. Moreover, the “Assay 2 (SIF) (% @ Remaining 4 hours)” value in data set [2] was “C (>75% of the tested compound remaining)”. In the data set on E. coli BL21(DE3), the “% payload released in ClbP negative (BL21 DE3) at 1:1 ratio of E. coli to fecal bacteria” value amounted to 1.9%.

For the compound `CCCCCCCC(=O)N[C@H](CCC(=O)O)C(=O)N[C@@H](C)C(=O)OC` [Example 9, (R)-5-(((S)-1-methoxy-1-oxopropan-2-yl)amino)-4-octanamido-5-oxopentanoic acid] (Octanoyl-[dE]-Ala-OMe), the “Assay 3 (% Remaining at 24 h)” value in data set [1] is “B (25-75% of the tested compound remaining)”. In data set [2], the “Assay 2 (SIF) (% @ Remaining 4 hours)” value is recorded as “B (25-75% of the tested compound remaining)”.

With `CCCCCCCC(=O)N[C@H](CCCNC(=N)N)C(=O)N[C@@H](C)C(=O)OC` [Example 11, Methyl octanoyl-D-arginyl-L-alaninate] (Octanoyl-[dR]-Ala-OMe), the “Assay 3 (% Remaining at 24 h)” value in data set [1] was “C (>75% of the tested compound remaining)”. For the same compound, the “Assay 2 (SIF) (% @ Remaining 4 hours)” value in data set [2] is reported as “A (<25% of the tested compound remaining)”.

For the compound `COC(=O)[C@H](C)NC(=O)[C@@H](CC(N)=O)NC(=O)[C@@H](C)c1ccc2cc(OC)ccc2c1` [Example 18, Methyl ((S)-2-(6-methoxynaphthalen-2-yl)propanoyl)-D-asparaginyl-L-alaninate], the “Assay 3 (% Remaining at 24 h)” value in data set [1] is recorded as “C (>75% of the tested compound remaining)”. The “Assay 2 (SIF) (% @ Remaining 4 hours)” value in data set [2] is listed as “A (<25% of the tested compound remaining)”.

For the compound `CCCCCCCC(=O)N[C@H](CC(N)=O)C(=O)N[C@H](C)C(=O)OC` [Example 5, Methyl octanoyl-D-asparaginyl-D-alaninate] (Octanoyl-[dN]-[dA]-OMe), in data set [1], the “Assay 3 (% Remaining at 24 h)” value was “C (>75% of the tested compound remaining)”. Further, the “Assay 2 (SIF) (% @ Remaining 4 hours)” value in data set [2] was “C (>75% of the tested compound remaining)”.

As for `CCCCCCCCCCCCCC(=O)N[C@H](CC(N)=O)C(=O)Nc1ccc(COC)cc1` [Example 22, (R)—N1-(4-(methoxymethyl)phenyl)-2-tetradecanamidosuccinamide], in data set [1], the “Assay 3 (% Remaining at 24 h)” value is “A (<25% of the tested compound remaining)” and the “Selective delivery to the colon” value was “can be selectively delivered to the colon”. Besides, the “Assay 2 (SIF) (% @ Remaining 4 hours)” value in data set [2] is “C (>75% of the tested compound remaining)”.

As to `CCCCCCCC(=O)N[C@H](CC(N)=O)C(=O)N[C@@H](C)C(=O)OC` [Example 2, Methyl octanoyl-D-asparaginyl-L-alaninate] (Octanoyl-[dN]-Ala-OMe), the “Assay 3 (% Remaining at 24 h)” value in data set [1] is reported as “C (>75% of the tested compound remaining)”. For the same compound, the “Assay 2 (SIF) (% @ Remaining 4 hours)” value in data set [2] was “A (<25% of the tested compound remaining)”.

For the compound `CCCCCCCCCCCCCC(=O)N[C@H](CC(N)=O)C(=O)N[C@@H](C)CCC(=O)OC` [Example 21, Methyl (S)-4-((R)-4-amino-4-oxo-2-tetradecanamidobutanamido)pentanoate], in data set [1], the “Assay 3 (% Remaining at 24 h)” value is given as “B (25-75% of the tested compound remaining)” and the “Selective delivery to the colon” value was “can be selectively delivered to the colon”. For the same compound, in data set [2], the “Assay 2 (SIF) (% @ Remaining 4 hours)” value is reported as “C (>75% of the tested compound remaining)”.

Regarding `CCCCCCCCCCCCCC(=O)N[C@H](CC(N)=O)C(=O)N[C@@H](C)C(=O)OC` [Example 1, Methyl tetradecanoyl-D-asparaginyl-L-alaninate] (Myristoyl-[dN]-Ala-OMe), the “Assay 3 (% Remaining at 24 h)” value in data set [1] is given as “A (<25% of the tested compound remaining)”. The “Assay 2 (SIF) (% @ Remaining 4 hours)” value in data set [2] was “A (<25% of the tested compound remaining)”.

Take `CCCCCCCC(=O)N[C@@H](CC(N)=O)C(=O)N[C@@H](C)C(=O)OC` [Example 4, Methyl octanoyl-L-asparaginyl-L-alaninate] (Octanoyl-Asn-Ala-OMe): the “Assay 3 (% Remaining at 24 h)” value in data set [1] is “A (<25% of the tested compound remaining)”. Moreover, the “Assay 2 (SIF) (% @ Remaining 4 hours)” value in data set [2] is given as “A (<25% of the tested compound remaining)”.

Values taken from patent publication US11998610B2, “Conjugates and methods of using the same” (Flagship Pioneering Innovations V, Inc., priority 2018, dated 2024).
